Columns and labels:
WcbI [1] = target: T1, WcbI (Burkholderia pseudomallei, UniProt Q63R74); conditions: absolute Tm at 1 mM ligand (no ligand 37.4 ± 0.4 °C); 10 mM HEPES pH 7.0, 150 mM NaCl
WcbI [2] = target: T1, WcbI; experiment: biochemical
WcbI [3] = target: T1, WcbI; conditions: covalent (disulfide to Cys14); co-crystallized with 200 µM acetyl-CoA; native structure 4BQO (1.56 Å) holds non-covalent CoA carried from E. coli

T1 sequence (Q63R74 1-312 limits assumed): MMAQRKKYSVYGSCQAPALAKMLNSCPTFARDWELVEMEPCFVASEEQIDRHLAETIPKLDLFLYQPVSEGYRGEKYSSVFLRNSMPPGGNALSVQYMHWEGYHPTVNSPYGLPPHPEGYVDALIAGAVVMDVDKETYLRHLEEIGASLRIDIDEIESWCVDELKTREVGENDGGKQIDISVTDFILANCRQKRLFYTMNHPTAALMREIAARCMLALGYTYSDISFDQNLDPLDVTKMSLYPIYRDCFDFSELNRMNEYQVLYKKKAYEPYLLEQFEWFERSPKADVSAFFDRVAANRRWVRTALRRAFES

SMILES	T m ± SD ^† (°C) (WcbI [1])	Kd (WcbI [2])	X-ray crystal structure, 1.38 Å (WcbI [3])
CC(=O)SCCNC(=O)CCNC(=O)[C@H](O)C(C)(C)COP(=O)(O)OP(=O)(O)OC[C@H]1O[C@@H](n2cnc3c(N)ncnc32)[C@H](O)[C@@H]1OP(=O)(O)O [acetyl-CoA]	45.6 ± 0.5 °C		
CC(C)(COP(=O)(O)OP(=O)(O)OC[C@H]1O[C@@H](n2cnc3c(N)ncnc32)[C@H](O)[C@@H]1OP(=O)(O)O)[C@@H](O)C(=O)NCCC(=O)NCCS [coenzyme A]	46.2 ± 0.2 °C	58 ± 2 µM	4bqn for WcbI covalently bound to coenzyme A and 4bqo for the native structure
